Measured values taken from patent publication US20240197608A1, “ACETYL SH-HEXAPEPTIDE-5 AMIDE ACETATE FOR USE IN THE TREATMENT OF HAIR LOSS DISORDERS AND AS A HAIR CARE AGENT” (L[…], S.A., priority 2021, published 2024).

Key:
Type in all cases: cell-based
[1] = test system: Fibroblast Growth Factor-7 (FGF7) gene expression; assay: FGF7 gene expression in Human Follicle Dermal Papilla Cells (RT-qPCR); details: HFDPC, 24 hours of incubation
Procedure: (§1) This assay determined the beneficial effect of the acetyl sh-hexapeptide-5 amide acetate in the reduction of the hair loss in an in vitro assay, using Dermal Papilla cells and analysed through gene expression analysis. In particular, this test determinate the effect of the acetyl sh-hexapeptide-5 amide acetate alone or in combination with tripeptide-10 citrulline after 24 hours of treatment of Human Follicle Dermal Papilla Cells (HFDPC), and through analysis of Fibroblast Growth Factor-7 (FGF7), Insulin-like Growth Factor-1 (IGF1), and Marker of Proliferation KI-67 (MKI67) gene expression, using Quantitative reverse transcription PCR (RT-qPCR) method.
(§2) Analytical equipment: Microscope, incubator, refrigerated centrifuge, statistical analysis software, micropipettes, pipettes, propipette, rack, quantifier Nano-Drop spectrophotometer, laminar flow hood, QuantStudio 5 (Applied Biosystem) Quantitative real-time PCR, vortex, Burker chamber, heating block, thermocycler, and consumables. […]
(§3) Methodology: Cell number and viability were determined using a Burker chamber and Trypan-Blue staining. […]
(§4) After 24 hours of incubation, the medium was removed, and cells were washed with PBS (phosphate buffered saline). […] 2 min (Ramp rate: 4.4° C./sec) 1 cycle PCR Analysis Mode: Quantification 95° C. […] All data were statistically analysed.

[2] = test system: Insulin-like Growth Factor-1 (IGF1) gene expression; assay: IGF1 gene expression in Human Follicle Dermal Papilla Cells (RT-qPCR); details: HFDPC, 24 hours of incubation
Procedure: as §1, §2, §3, §4

[3] = test system: Marker of Proliferation KI-67 (MKI67) gene expression; assay: MKI67 gene expression in Human Follicle Dermal Papilla Cells (RT-qPCR); details: sample at 5% in culture medium, HFDPC, 24 hours of incubation
Procedure: as §1, §2, §3, §4

With “acetyl sh-hexapeptide-5 amide acetate [sample 1]” the “Fibroblast Growth Factor-7 (FGF7) expression increase compared to the untreated control” value ([1]; sample at 1% in culture medium) was 72.3±12.5%, the “Fibroblast Growth Factor-7 (FGF7) expression increase compared to the untreated control” value ([1]; sample at 5% in culture medium) was 108.0±8.3% and the “IGF1 gene expression increase compared to the untreated control” value ([2]; sample at 1% in culture medium) was 286.3±72.0%. The “IGF1 gene expression increase compared to the untreated control” value ([2]; sample at 5% in culture medium) was 300.2±45.0% and the “MK167 gene expression increase compared to the untreated control” value [3] was 100.4±25.2%.
